From patent US11613531B2, “Inhibitors of RHO associated coiled-coil containing protein kinase” (Kadmon Corporation, LLC, priority 2017, dated 2023)
Read-outs that look alike come from different tables or passages of the source.

Assays:
[1] = target: Recombinant ROCK2 (amino acids 1-552) (Homo sapiens (Human), UniProt O75116); assay: Z′-Lyte kinase assay, ROCK2; assay type: biochemical; conditions: for inhibition at 0.5 µM: 0.5 μM compound; for inhibition at 0.5 µM / inhibition at 3 µM / inhibition at 1 µM: read-out: ROCK2 % inh. @ [conc]; for inhibition at 3 µM: 3 μM compound; for inhibition at 1 µM: 1 μM compound
Chain of Recombinant ROCK2 (amino acids 1-552) (O75116 1-552): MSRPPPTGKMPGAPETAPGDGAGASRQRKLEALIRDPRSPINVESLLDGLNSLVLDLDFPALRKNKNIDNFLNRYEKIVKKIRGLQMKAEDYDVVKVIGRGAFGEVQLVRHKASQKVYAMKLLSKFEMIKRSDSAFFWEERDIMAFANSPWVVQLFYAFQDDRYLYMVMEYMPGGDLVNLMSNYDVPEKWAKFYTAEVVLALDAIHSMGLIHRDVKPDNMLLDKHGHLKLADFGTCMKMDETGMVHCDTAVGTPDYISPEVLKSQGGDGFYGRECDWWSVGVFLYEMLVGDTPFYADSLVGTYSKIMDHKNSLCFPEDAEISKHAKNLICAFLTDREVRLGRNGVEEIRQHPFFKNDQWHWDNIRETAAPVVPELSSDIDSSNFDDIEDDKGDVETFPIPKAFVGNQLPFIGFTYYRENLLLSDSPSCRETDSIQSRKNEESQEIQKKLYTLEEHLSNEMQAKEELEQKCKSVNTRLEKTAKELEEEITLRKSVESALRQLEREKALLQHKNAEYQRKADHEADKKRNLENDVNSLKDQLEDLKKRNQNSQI
Summary of the method: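 IC50s derive from nonlinear curve fits over a 9-point, 2-fold dilution series, with single-point inhibition at 1 μM expressed relative to DMSO. Activity of truncated human ROCK1 (residues 1-535) and ROCK2 (residues 1-552) measured with the Z′-Lyte kinase format.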

[2] = target: Recombinant ROCK1 (amino acids 1-535) (Homo sapiens (Human), UniProt Q13464); assay: Z′-Lyte kinase assay, ROCK1; assay type: biochemical; conditions: for inhibition at 0.5 µM: 0.5 μM compound; for inhibition at 0.5 µM / inhibition at 3 µM: read-out: ROCK1 % inh. @ [conc]; for inhibition at 3 µM: 3 μM compound
Chain of Recombinant ROCK1 (amino acids 1-535) (Q13464 1-535): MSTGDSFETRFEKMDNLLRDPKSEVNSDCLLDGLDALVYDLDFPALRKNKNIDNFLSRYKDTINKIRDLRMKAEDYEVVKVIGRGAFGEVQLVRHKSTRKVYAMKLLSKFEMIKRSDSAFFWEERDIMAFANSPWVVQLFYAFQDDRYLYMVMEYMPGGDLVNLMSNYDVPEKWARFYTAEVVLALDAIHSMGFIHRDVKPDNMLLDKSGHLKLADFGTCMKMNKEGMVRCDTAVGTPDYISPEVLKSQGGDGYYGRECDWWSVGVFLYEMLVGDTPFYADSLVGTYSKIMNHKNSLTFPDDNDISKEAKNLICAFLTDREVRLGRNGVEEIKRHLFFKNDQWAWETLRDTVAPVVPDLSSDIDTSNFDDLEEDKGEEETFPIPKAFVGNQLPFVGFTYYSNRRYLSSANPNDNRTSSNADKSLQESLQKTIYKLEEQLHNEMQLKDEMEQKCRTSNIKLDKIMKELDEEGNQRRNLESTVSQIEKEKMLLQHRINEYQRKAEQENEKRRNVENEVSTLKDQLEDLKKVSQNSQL
Protocol: Determination of Compound's ROCK Inhibitory Activity In Vitro (Z'Lyte Assay).
Recombinant ROCK1 (amino acids 1-535) and ROCK2 (amino acids 1-552) proteins were purchased from ThermoFisher Scientific. Compound's activities were measured by Z′-lyte kinase kit (ThermoFisher Scientific) and IC50 was calculated
In vitro activities for the compounds were measured with Z′-lyte kinase kit (ThermoFisher Scientific). The percent inhibition rate was calculated by normalizing the kinase activity value obtained with 1 μM compound treatment against DMSO control value and then applied to the formula, [1-(compound/DMSO)]×100%. IC50s were calculated using the nonlinear regression curve fit function of the GraphPad Prism software with kinase activities data measured with 9 points 2-fold serial dilution of compounds treatment. In cell pMLC IC50s were calculated with data obtained from A7R5 cell experiments. A7R5 cells were treated with 9 points 2-fold serial dilution of compounds and ppMlc (T18/S19) levels were determined to calculate cellular IC50 values of the compounds using the nonlinear regression curve fit function of the GraphPad Prism software. NIH3T3 cells stably expressing ACTA2-promoter-driven-luciferase were applied to measure ROCK compounds functional IC50s in cells. Cells were plated in 96 well plates to confluence and treated with 9 points serial dilution of compounds in combination with TGFβ1 for 24 hr. Luciferase activities were measured and compound's IC50s were calculated using the nonlinear regression curve fit function of the GraphPad Prism software.

[3] = test system: ppMlc (T18/S19) levels in A7R5 cells; assay: A7R5 in-cell ELISA (pMLC); assay type: cell-based, Rat; conditions: Rattus norvegicus, A7R5, A7R5 cells; for inhibition at 10 µM: 10 μM compound; for inhibition at 10 µM / inhibition at 1 µM: read-out: pMLC % inh A7R5 @ [conc]; for IC50: ppMlc (T18/S19); for inhibition at 1 µM: 1 μM compound
Summary of the method: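 Cellular IC50 came from a nonlinear regression fit of ppMlc (T18/S19) signal, read by colorimetric in-cell ELISA on fixed cells. Rat A7R5 aortic smooth muscle cells had been exposed for 90 min to compounds in 9-point 2-fold serial dilution, 24 h after seeding.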

[4] = 9 points 2-fold serial dilution

| Compound | inhibition at 0.5 µM [1] | inhibition at 0.5 µM [2] | IC50 [1] | other results |
| --- | --- | --- | --- | --- |
| CCOOCC12CNCC1(C(F)(F)F)CN(c1ncc(F)c(Nc3ccc4[nH]ncc4c3)n1)C2 (stereo not drawn) [Example 328, N-(2-(3a-((ethylperoxy)methyl)-6a-(trifluoromethyl)hexahydropyrrolo[3,4-c]pyrrol-2(1H)-yl)-5-fluoropyrimidin-4-yl)-1H-indazol-5-amine] | 7% | 8% | – | – |
| c1cc2[nH]ncc2cc1Nc1nc(N2C3CCC2CNC3)nc2c1CNC2 [Example 275, 2-(3,8-diazabicyclo[3.2.1]octan-8-yl)-N-(1H-indazol-5-yl)-6,7-dihydro-5H-pyrrolo[3,4-d]pyrimidin-4-amine] | 90% | 95% | 1.2 nM | – |
| CCC1CNCCN1c1ncc(Cl)c(Nc2ccc3[nH]ncc3c2)n1 (stereo not drawn) [Example 187, N-(5-chloro-2-(2-ethylpiperazin-1-yl)pyrimidin-4-yl)-1H-indazol-5-amine] | – | – | – | inhibition at 10 µM [3]: 59.8%; IC50 [3]: 665 nM; IC50 [1, 4]: 111 nM; IC50 [2, 4]: 58 nM |
| CC1CN(c2nccc(Nc3ccc(-c4ccncc4)cc3)n2)CCCN1 (stereo not drawn) [Example 43, 2-(3-methyl-1,4-diazepan-1-yl)-N-(4-(pyridin-4-yl)phenyl)pyrimidin-4-amine] | – | – | – | IC50 [3]: 730 nM; inhibition at 3 µM [1]: 98.8%; IC50 [1, 4]: 120 nM; inhibition at 3 µM [2]: 99%; IC50 [2, 4]: 135 nM |
| c1cc(-c2ccc(Nc3nc(N4C5CCC4CNC5)nc4c3COC4)cc2)ccn1 [Example 281, 2-(3,8-diazabicyclo[3.2.1]octan-8-yl)-N-(4-(pyridin-4-yl)phenyl)-5,7-dihydrofuro[3,4-d]pyrimidin-4-amine] | 10% | 14% | 2570 nM | inhibition at 1 µM [3]: 10.4% |
| c1cncc(-c2cccc(Nc3ccnc(N4CCNCC4)n3)c2)c1 [Example 346, 2-(piperazin-1-yl)-N-(3-(pyridin-3-yl)phenyl)pyrimidin-4-amine] | – | – | > 10000 nM | inhibition at 10 µM [3]: 12.3%; IC50 [2]: > 10000 nM |
| CCCC1CNCCN1c1nccc(Nc2ccc3[nH]ncc3c2)n1 (stereo not drawn) [Example 69, N-(2-(2-propylpiperazin-1-yl)pyrimidin-4-yl)-1H-indazol-5-amine] | 52% | 67% | – | inhibition at 1 µM [3]: 19.3% |
| Clc1cnc(N2CCNCC2)nc1Nc1ccc2[nH]ncc2c1 [Example 178, N-(5-chloro-2-(piperazin-1-yl)pyrimidin-4-yl)-1H-indazol-5-amine] | – | – | – | inhibition at 10 µM [3]: 47.5%; IC50 [3]: 706 nM; IC50 [1, 4]: 159 nM; IC50 [2, 4]: 388 nM |
| Cc1cc(Nc2ccc3[nH]ncc3c2)nc(N2CCCNCC2)n1 [Example 5, N-(2-(1,4-diazepan-1-yl)-6-methylpyrimidin-4-yl)-1H-indazol-5-amine] | – | – | – | inhibition at 10 µM [3]: 86%; IC50 [3]: 63 nM; inhibition at 3 µM [1]: 102%; IC50 [1, 4]: 54 nM; inhibition at 3 µM [2]: 98.3% |
| c1cc2c(Nc3ccc4[nH]ncc4c3)nc(N3C4CCC3CNC4)nc2s1 [Example 274, 2-(3,8-diazabicyclo[3.2.1]octan-8-yl)-N-(1H-indazol-5-yl)thieno[2,3-d]pyrimidin-4-amine] | 99% | 101% | 0.4 nM | – |
| c1cc(Nc2ccc3[nH]ncc3c2)nc(N2CCC3(CCNCC3)C2)n1 [Example 202, N-(2-(2,8-diazaspiro[4.5]decan-2-yl)pyrimidin-4-yl)-1H-indazol-5-amine] | – | – | – | inhibition at 10 µM [3]: 13.8%; inhibition at 3 µM [1]: 88.3%; inhibition at 3 µM [2]: 88.4% |
| CCOC(=O)C12CNCC1(C(F)(F)F)CN(c1ncc(Cl)c(Nc3ccc4[nH]ncc4c3)n1)C2 (stereo not drawn) [Example 338, Ethyl 2-(4-((1H-indazol-5-yl)amino)-5-chloropyrimidin-2-yl)-6a-(trifluoromethyl)hexahydropyrrolo[3,4-c]pyrrole-3a(1H)-carboxylate] | 13% | 3% | – | – |
| CCOC(=O)[C@]12CCNCCC1CN(c1ncc(Cl)c(Nc3ccc4[nH]ncc4c3)n1)C2 (stereo partly drawn) [Example 323, Ethyl (3αR,8αR)-2-(4-((1H-indazol-5-yl)amino)-5-chloropyrimidin-2-yl)octahydropyrrolo[3,4-d]azepine-3α(1H)-carboxylate] | 29% | 17% | – | – |
| c1cc(-c2cn[nH]c2)ccc1Nc1nc(N2C3CCC2CNC3)nc2c1COC2 [Example 279, N-(4-(1H-pyrazol-4-yl)phenyl)-2-(3,8-diazabicyclo[3.2.1]octan-8-yl)-5,7-dihydrofuro[3,4-d]pyrimidin-4-amine] | 85% | 76% | 40 nM | – |
| c1cc(-c2cn[nH]c2)ccc1Nc1nc(N2C3CCC2CNC3)nc2c1COCC2 [Example 243, N-(4-(1H-pyrazol-4-yl)phenyl)-2-(3,8-diazabicyclo[3.2.1]octan-8-yl)-7,8-dihydro-5H-pyrano[4,3-d]pyrimidin-4-amine] | 80% | 67% | 56 nM | – |
| c1cc2nc(N3C4CCC3CNC4)nc(Nc3ccc4[nH]ncc4c3)c2s1 [Example 282, 2-(3,8-diazabicyclo[3.2.1]octan-8-yl)-N-(1H-indazol-5-yl)thieno[3,2-d]pyrimidin-4-amine] | 99% | 101% | < 0.1 nM | – |
| c1cc2[nH]ncc2cc1Nc1nc(N2C3CCC2CNC3)nc2c1COCC2 [Example 46, 2-(3,8-diazabicyclo[3.2.1]octan-8-yl)-N-(1H-indazol-5-yl)-7,8-dihydro-5H-pyrano[4,3-d]pyrimidin-4-amine] | 98% | 98% | 1 nM | – |
| CCOC(=O)[C@]12CCNCCC1CN(c1ncc(F)c(Nc3ccc4[nH]ncc4c3)n1)C2 (stereo partly drawn) [Example 322, Ethyl (3αR,8αR)-2-(4-((1H-indazol-5-yl)amino)-5-fluoropyrimidin-2-yl)octahydropyrrolo[3,4-d]azepine-3α(1H)-carboxylate] | 29% | 17% | – | – |
| c1cc(-c2cn[nH]c2)ccc1Nc1nc(N2C3CCC2CNC3)nc2c1CNC2 [Example 276, N-(4-(1H-pyrazol-4-yl)phenyl)-2-(3,8-diazabicyclo[3.2.1]octan-8-yl)-6,7-dihydro-5H-pyrrolo[3,4-d]pyrimidin-4-amine] | 91% | 88% | 2.3 nM | – |
| CCOC(=O)C1NC2CC1CN(c1ncc(F)c(Nc3ccc4[nH]ncc4c3)n1)C2 (stereo not drawn) [Example 339, Ethyl 3-(4-((1H-indazol-5-yl)amino)-5-fluoropyrimidin-2-yl)-3,6-diazabicyclo[3.2.1]octane-7-carboxylate] | 75% | 56% | 211 nM | – |
| Fc1cnc(N2CC3(CCNCC3)c3ccccc32)nc1Nc1ccc2[nH]ncc2c1 [Example 176, N-(5-fluoro-2-(spiro[indoline-3,4′-piperidin]-1-yl)pyrimidin-4-yl)-1H-indazol-5-amine] | – | – | – | inhibition at 1 µM [3]: 14.5%; inhibition at 1 µM [1]: 0% |
| CC(C)C1CN(c2ncc(Cl)c(Nc3ccc4[nH]ncc4c3)n2)CCN1 (stereo not drawn) [Example 185, N-(5-chloro-2-(3-isopropylpiperazin-1-yl)pyrimidin-4-yl)-1H-indazol-5-amine] | – | – | – | inhibition at 10 µM [3]: 41.6%; inhibition at 1 µM [1]: 19.7% |
| Cc1cc(Nc2ccc3[nH]ncc3c2)nc(N2CC3CCC(C2)N3)n1 [Example 119, N-(2-(3,8-diazabicyclo[3.2.1]octan-3-yl)-6-methylpyrimidin-4-yl)-1H-indazol-5-amine] | – | – | – | inhibition at 1 µM [3]: 17.7%; inhibition at 1 µM [1]: 90.1% |
